The assay concerns FGFR. Description: Kinase inhibition, cell-free enzymatic assay. As to conditions: 1 mM ATP. The assay is classed as biochemical.

We go through one compound from patent US8912236B2 (Alcon Research, Ltd., priority 2009, dated 2014).

Structures are written as SMILES.

A word on the IC50: it is the concentration that inhibits the measured activity by half. A higher IC50 goes with weaker potency in that assay. In turn, `Cc1ccc(F)c(NC(=O)Nc2ccc(-c3cccc4[nH]nc(N)c34)cc2)c1` [RTK Inhibitor, N-[4-(3-amino-1H-indazol-4-yl)phenyl]-N′-(2-fluoro-5-methylphenyl) urea] yielded a concentration for half-maximal inhibition (IC50) of more than 12.5 µM.
